# In the supplement of paper PMC10949913:
# Assays:
# Assay in all cases: area under concentration-response curve (viability) (AUC (a.u.)); higher = less active
# Settings in all cases: 48 h
# [1] = system: CU-ACC1
# Summary of the method: (§1)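 Luminescence from CellTiter-Glo, read after 48 h, measured three adrenocortical carcinoma cell lines treated in 1,536-well plates with library compounds at 11 concentrations. Values were normalised per plate to vehicle and empty-well controls. The AC50 and area under the curve come from fitted concentration-response curves in inhibitory or non-responding classes only.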
# [2] = system: CU-ACC2
# Summary of the method: as §1
# [3] = system: NCI-H295R
# Summary of the method: as §1
smiles,measurement,setting,value
CCOC(=O)[C@H](CCc1ccccc1)N[C@H]1CS[C@H](c2cccs2)CN(CC(=O)O)C1=O.Cl,area under concentration-response curve,[1],513
same,area under concentration-response curve,[2],584
same,area under concentration-response curve,[3],541
CC(C)(NC(=O)O[C@@H]1CN2CCC1CC2)c1csc(-c2ccc(F)cc2)n1,area under concentration-response curve,[1],479
same,area under concentration-response curve,[2],477
same,area under concentration-response curve,[3],480
CSCC[C@H](NC(=O)[C@H](Cc1c[nH]c2ccccc12)NC(=O)CCNC(=O)OC(C)(C)C)C(=O)N[C@@H](CC(=O)O)C(=O)N[C@@H](Cc1ccccc1)C(N)=O,area under concentration-response curve,[1],495
same,area under concentration-response curve,[2],579
same,area under concentration-response curve,[3],545
C[C@@H](N)[C@H]1CC[C@H](C(=O)Nc2ccncc2)CC1,area under concentration-response curve,[1],472
same,area under concentration-response curve,[2],487
same,area under concentration-response curve,[3],448
CC(NC1=NC=NC2=C1[NH]C=N2)\C3=C\C4=C(C(=CC=C4)Cl)C(=O)N3C5=CC=CC=C5 (configuration not stated),area under concentration-response curve,[1],432
same,area under concentration-response curve,[2],569
same,area under concentration-response curve,[3],580
NCCCC(O)(P(=O)([O-])O)P(=O)(O)O,area under concentration-response curve,[1],511
same,area under concentration-response curve,[2],529
same,area under concentration-response curve,[3],472
CCCC1OC2C[C@H]3[C@@H]4CCC5=CC(=O)C=C[C@]5(C)[C@H]4C(O)C[C@]3(C)[C@]2(C(=O)CO)O1 (some centres not stated),area under concentration-response curve,[1],562
same,area under concentration-response curve,[2],661
same,area under concentration-response curve,[3],607
Cc1c(C)c2c(c(C)c1O)CCC(C)(COc1ccc(CC3SC(=O)NC3=O)cc1)O2 (configuration not stated),area under concentration-response curve,[1],369
same,area under concentration-response curve,[2],511
same,area under concentration-response curve,[3],492
Cc1cccc(-c2[nH]c(CNc3ccccc3F)nc2-c2ccc3ncnn3c2)n1,area under concentration-response curve,[1],483
same,area under concentration-response curve,[2],510
same,area under concentration-response curve,[3],463
CN1\C(=C([O-])/C2=CC=CC=C2[S+]1([O-])=O)C(=O)NC3=NC=C(C)S3,area under concentration-response curve,[1],479
same,area under concentration-response curve,[2],572
same,area under concentration-response curve,[3],525
CCCOc1ccc(C(=O)OCCN(CC)CC)cc1N,area under concentration-response curve,[1],377
same,area under concentration-response curve,[2],530
same,area under concentration-response curve,[3],481
COc1ccc(Oc2cc(NCCC(F)(F)F)c3ncc(-c4ccc(C(=O)NC5CC5)c(C)c4)n3n2)c(F)c1F,area under concentration-response curve,[1],487
same,area under concentration-response curve,[2],459
same,area under concentration-response curve,[3],501
CC1=C(F)C=CC(=C1)N2C(=O)\C=C/C3=C2C4=C([NH]C=C4)N=C3,area under concentration-response curve,[1],519
same,area under concentration-response curve,[2],509
same,area under concentration-response curve,[3],527
Cc1cn(-c2cc(NC(=O)c3ccc(C)c(Nc4nccc(-c5cccnc5)n4)c3)cc(C(F)(F)F)c2)cn1,area under concentration-response curve,[1],438
same,area under concentration-response curve,[2],506
same,area under concentration-response curve,[3],417
OC[C@H]1OCC(O1)[N@@]2C=CC(N)=NC2=O (some centres not stated),area under concentration-response curve,[1],423
same,area under concentration-response curve,[2],451
same,area under concentration-response curve,[3],494
Nc1nc(Cl)nc2c1ncn2[C@@H]1O[C@H](CO)[C@@H](O)[C@@H]1F,area under concentration-response curve,[1],468
same,area under concentration-response curve,[2],559
same,area under concentration-response curve,[3],537
Clc1ccccc1C(c1ccccc1)(c1ccccc1)n1cccn1,area under concentration-response curve,[1],496
same,area under concentration-response curve,[2],489
same,area under concentration-response curve,[3],520
COc1ccc2c(OCc3nnc4ccc(-c5ccccc5)nn34)ccnc2c1,area under concentration-response curve,[1],520
same,area under concentration-response curve,[2],609
same,area under concentration-response curve,[3],589
Cc1noc2c1-c1ccccc1C(c1ccc(Cl)cc1)=N[C@H]2CC(N)=O,area under concentration-response curve,[1],495
same,area under concentration-response curve,[2],568
same,area under concentration-response curve,[3],466
Cc1cnc(NC(=O)C2=C(O)c3ccccc3S(=O)(=O)N2C)s1,area under concentration-response curve,[1],393
same,area under concentration-response curve,[2],409
same,area under concentration-response curve,[3],396
CC(=O)NC[C@H]1CN(c2ccc(N3CCOCC3)c(F)c2)C(=O)O1,area under concentration-response curve,[1],565
same,area under concentration-response curve,[2],700
same,area under concentration-response curve,[3],612
C[C@@H]1O[C@@H](O[C@@H]2\C=C/C=C\C=C/C=C\C[C@H](C)OC(=O)/C=C\[C@H]3O[C@@H]3C[C@H](O)C[C@]3(O)C[C@@H](O)[C@@H](C(=O)O)[C@H](C2)O3)[C@H](O)[C@H](N)[C@@H]1O,area under concentration-response curve,[1],395
same,area under concentration-response curve,[2],572
same,area under concentration-response curve,[3],573
FC(F)(F)c1ccc(CNc2ccc(Cc3c[nH]c4ncc(Cl)cc34)cn2)cn1,area under concentration-response curve,[1],555
same,area under concentration-response curve,[2],630
same,area under concentration-response curve,[3],582
Cc1ccsc1C(=CCCN1CCC[C@@H](C(=O)O)C1)c1sccc1C,area under concentration-response curve,[1],488
same,area under concentration-response curve,[2],593
same,area under concentration-response curve,[3],541
CCn1c(=O)c2c(nc(/C=C/c3ccc(OC)c(OC)c3)n2C)n(CC)c1=O,area under concentration-response curve,[1],431
same,area under concentration-response curve,[2],434
same,area under concentration-response curve,[3],431
O=C1CCc2ccc(OCCCCN3CCN(c4cccc(Cl)c4Cl)CC3)cc2N1,area under concentration-response curve,[1],468
same,area under concentration-response curve,[2],593
same,area under concentration-response curve,[3],544
COc1cc2c(NC3CCN(C)CC3)nc(N3CCCN(C)CC3)nc2cc1OCCCN(C)C,area under concentration-response curve,[1],544
same,area under concentration-response curve,[2],641
same,area under concentration-response curve,[3],564
CCc1cc(Nc2nccc(-c3c(-c4ccc(OC)c(C(=O)Nc5c(F)cccc5F)c4)nc4ccccn34)n2)c(OC)cc1N1CCC(N2CCN([S+](C)(=O)[O-])CC2)CC1,area under concentration-response curve,[1],509
same,area under concentration-response curve,[2],548
same,area under concentration-response curve,[3],485
Cc1cnc(NC(=O)c2cc(Oc3cnc(C(=O)N(C)C)nc3)c3cc(C)oc3c2)cn1,area under concentration-response curve,[1],564
same,area under concentration-response curve,[2],643
same,area under concentration-response curve,[3],594
FC1=CC=C(C=C1)N2/C=C\C=C(C(=O)NC3=CC=C(OC4=C5C=C[NH]C5=NC=C4)C(=C3)F)/C2=O,area under concentration-response curve,[1],588
same,area under concentration-response curve,[2],616
same,area under concentration-response curve,[3],535
COC(=O)[C@H](c1ccccc1Cl)N1CCc2sccc2C1,area under concentration-response curve,[1],510
same,area under concentration-response curve,[2],551
same,area under concentration-response curve,[3],521
O=C(O)CCNC(=O)c1ccc(/N=N/c2ccc(O)c(C(=O)O)c2)cc1,area under concentration-response curve,[1],519
same,area under concentration-response curve,[2],635
same,area under concentration-response curve,[3],589
Cn1cc(-c2ccc(F)c(C(F)(F)F)c2)nc1C1CCN(c2ncnc3[nH]ncc23)CC1,area under concentration-response curve,[1],471
same,area under concentration-response curve,[2],555
same,area under concentration-response curve,[3],510
Cc1n[nH]c2ncc(C(=O)N3CCC[C@H]3c3ccc(Cl)cc3)cc12,area under concentration-response curve,[1],414
same,area under concentration-response curve,[2],540
same,area under concentration-response curve,[3],503
CCN(CC)CCN1C(=O)\C(=N/C2=CC=CC=C12)CC3=CC=C(OC)C=C3,area under concentration-response curve,[1],472
same,area under concentration-response curve,[2],526
same,area under concentration-response curve,[3],501
CCO[C@@H]1OC(=O)C[C@@H]1NC(=O)[C@@H]1CCCN2C(=O)CC[C@H](NC(=O)c3nccc4ccccc34)C(=O)N12,area under concentration-response curve,[1],568
same,area under concentration-response curve,[2],594
same,area under concentration-response curve,[3],553
CC(C)NC(=O)N1CC[C@@H](C1)NC/2=N/C3=C(C=CC(=C3)F)N(CC(F)F)C4=C2C=C(Cl)C=C4,area under concentration-response curve,[1],580
same,area under concentration-response curve,[2],656
same,area under concentration-response curve,[3],580
NC/1=N/C(=O)C/2=C(/NCC3CN(CN23)C4=CC=C(C=C4)C(=O)N[C@@H](CCC(O)=O)C(O)=O)N1 (some centres not stated),area under concentration-response curve,[1],475
same,area under concentration-response curve,[2],565
same,area under concentration-response curve,[3],526
OC[C@H]1O[C@@H](S[C@@H]2O[C@H](CO)[C@H](O)[C@H](n3cc(-c4cccc(F)c4)nn3)[C@H]2O)[C@H](O)[C@@H](n2cc(-c3cccc(F)c3)nn2)[C@H]1O,area under concentration-response curve,[1],507
same,area under concentration-response curve,[2],590
same,area under concentration-response curve,[3],547
CNc1nc(C)nc(N[C@H]2CCC[C@@H](C(=O)NCc3ccc(C#N)cc3C(F)(F)F)C2)n1,area under concentration-response curve,[1],497
same,area under concentration-response curve,[2],593
same,area under concentration-response curve,[3],496
O=C1O[C@]2(CC[C@@H](C(=O)Nc3ccn(-c4ccccc4F)n3)CC2)c2cnccc21,area under concentration-response curve,[1],492
same,area under concentration-response curve,[2],602
same,area under concentration-response curve,[3],494
CC1(C)CCC(=C(\C1)C2=CC=C(Cl)C=C2)/CN3CCN(CC3)C4=CC(=C(C=C4)C(=O)N[S+]([O-])(=O)C5=CC=C(NCC6CCOCC6)C(=C5)[N+]([O-])=O)OC7=CN=C8[NH]C=CC8=C7,area under concentration-response curve,[1],511
same,area under concentration-response curve,[2],573
same,area under concentration-response curve,[3],478
C[C@H](NC(=O)Cc1cc(F)cc(F)c1)C(=O)N[C@H](C(=O)OC(C)(C)C)c1ccccc1,area under concentration-response curve,[1],570
same,area under concentration-response curve,[2],677
same,area under concentration-response curve,[3],572
CC(C)C[C@H](NC(=O)[C@@H](O)[C@H](N)Cc1ccccc1)C(=O)O,area under concentration-response curve,[1],459
same,area under concentration-response curve,[2],571
same,area under concentration-response curve,[3],494
